Data from ChEMBL document CHEMBL4396891, “Recent update on anti-dengue drug discovery” (Eur J Med Chem, 2019).
In brackets after ≈: the same amount, converted by molar mass.

Assays:
dengue virus type 1 [1] = experiment: Antiviral activity against DENV1 infected in human Huh7 cells assessed as reduction in viral yield after 48 hrs by MTT assay; assay type: functional, organism-based; settings: Huh-7, 48 h, pooled result: one value given for 4 cell lines, strains, targets or settings
dengue virus type 2 [2] = experiment: Antiviral activity against DENV2 16681 infected in HEK293 cells after 72 hrs by luciferase reporter gene assay; assay type: functional, organism-based; settings: Dengue virus, 16681, HEK293, 72 h
dengue virus type 2 [3] = experiment: Antiviral activity against DENV2 assessed as reduction in plaque formation; assay type: functional, organism-based
dengue virus type 2 [4] = experiment: Antiviral activity against DENV2 infected in African green monkey Vero cells after 30 mins by immunofluorescence assay; assay type: functional, organism-based; settings: 0.5 h
dengue virus type 3 [5] = experiment: Antiviral activity against DENV3 infected in African green monkey Vero cells after 30 mins by immunofluorescence assay; assay type: functional, organism-based; settings: 0.5 h
dengue virus type 4 [6] = experiment: Antiviral activity against DENV4 infected in African green monkey Vero cells after 30 mins by immunofluorescence assay; assay type: functional, organism-based; settings: 0.5 h
dengue virus type 1 [7] = experiment: Antiviral activity against DENV1 infected in African green monkey Vero cells after 30 mins by immunofluorescence assay; assay type: functional, organism-based; settings: 0.5 h
dengue virus type 4 [8] = experiment: Antiviral activity against DENV4 infected in African green monkey Vero cells assessed as virus yield reduction after 48 hrs by measuring plaque forming units titration; assay type: functional, organism-based
dengue virus type 3 [9] = experiment: Antiviral activity against DENV3 infected in African green monkey Vero cells assessed as virus yield reduction after 48 hrs by measuring plaque forming units titration; assay type: functional, organism-based
dengue virus type 2 [10] = experiment: Antiviral activity against DENV2 infected in African green monkey Vero cells assessed as virus yield reduction after 48 hrs by measuring plaque forming units titration; assay type: functional, organism-based
dengue virus type 1 [11] = experiment: Antiviral activity against DENV1 infected in African green monkey Vero cells assessed as virus yield reduction after 48 hrs by measuring plaque forming units titration; assay type: functional, organism-based
dengue virus type 2 [12] = experiment: Antiviral activity against DENV2 infected in monkey LLC-MK2 cells; assay type: functional, organism-based
dengue virus type 3 [13] = experiment: Antiviral activity against DENV3 infected in human HepG2 cells assessed as reduction in viral infection at 20 uM after 24 to 72 hrs by FFU assay relative to control; assay type: functional; design: scale not given: the % may be the effect or the level left
dengue virus type 2 [14] = experiment: Antiviral activity against DENV2 infected in […] BHK-15 cells after 48 hrs by luciferase reporter gene assay; assay type: functional, organism-based; settings: BHK15, 48 h
dengue virus type 2 [15] = experiment: Antiviral activity against DENV2 infected in human HepG2 cells assessed as reduction in viral infection at 20 uM after 24 to 72 hrs by FFU assay relative to control; assay type: functional; design: scale not given: the % may be the effect or the level left
dengue virus type 1 [16] = experiment: Antiviral activity against DENV1 infected in human HepG2 cells assessed as reduction in viral infection at 20 uM after 24 to 72 hrs by FFU assay relative to control; assay type: functional; design: scale not given: the % may be the effect or the level left
dengue virus type 4 [17] = experiment: Antiviral activity against DENV4 infected in human HepG2 cells assessed as reduction in viral infection at 20 uM after 24 to 72 hrs by FFU assay relative to control; assay type: functional; design: scale not given: the % may be the effect or the level left
dengue virus type 2 [18] = experiment: Virucidal activity against DENV2 infected in human HeLa cells; assay type: functional, organism-based
dengue virus type 2 [19] = experiment: Virucidal activity against DENV2 infected in human HepG2 cells; assay type: functional, organism-based
dengue virus type 3 [20] = experiment: Antiviral activity against DENV3 5532 infected in human Huh7.5 cells after 72 hrs by flow cytometric analysis; assay type: functional, organism-based; settings: Dengue virus, 5532, Huh7.5, 72 h
dengue virus type 1 [21] = experiment: Antiviral activity against DENV1 FGA/89 infected in human Huh7.5 cells after 72 hrs by flow cytometric analysis; assay type: functional, organism-based; settings: FGA/89, Huh7.5, 72 h
dengue virus type 4 [22] = experiment: Antiviral activity against DENV4 TVP360 infected in human Huh7.5 cells after 72 hrs by flow cytometric analysis; assay type: functional, organism-based; settings: TVP360, Huh7.5, 72 h
dengue virus type 2 [23] = experiment: Antiviral activity against DENV2 ICC265 infected in human Huh7.5 cells after 72 hrs by flow cytometric analysis; assay type: functional, organism-based; settings: ICC265, Huh7.5, 72 h
dengue virus type 4 [24] = experiment: Antiviral activity against DENV4 after 48 hrs by qRT-PCR analysis; assay type: functional, organism-based
dengue virus type 1 [25] = experiment: Antiviral activity against DENV1 after 48 hrs by qRT-PCR analysis; assay type: functional, organism-based
dengue virus type 2 [26] = experiment: Antiviral activity against DENV2 after 48 hrs by qRT-PCR analysis; assay type: functional, organism-based
dengue virus type 3 [27] = experiment: Antiviral activity against DENV3 after 48 hrs by qRT-PCR analysis; assay type: functional, organism-based
Genome polyprotein [28] = molecular target: T1, Genome polyprotein (dengue virus type 2, UniProt P29990); experiment: Inhibition of DENV2 NS2B-NS3 serine protease using Boc-GRR-AMC as substrate after 30 mins
Genome polyprotein [29] = molecular target: T1, Genome polyprotein; experiment: Inhibition of DENV2 NS2B-NS3 serine protease expressed in human Huh7 cells after 3 days by Phospha-Light SEAP reporter gene Assay; assay type: cell-based
Genome polyprotein [30] = molecular target: T1, Genome polyprotein; experiment: Inhibition of His-tagged DENV2 NS2B-NS3 serine protease
dengue virus type 2 [31] = experiment: Antiviral activity against DENV2 16681 infected in human Huh7 cells after 3 days by RT-qPCR analysis; assay type: functional, organism-based; settings: Dengue virus, 16681, Huh-7, 72 h
Genome polyprotein [32] = molecular target: T1, Genome polyprotein; experiment: Inhibition of His-tagged DENV2 NS2B-NS3 serine protease expressed in baculovirus infected sf9 cells
dengue virus type 2 [33] = experiment: Antiviral activity against DENV2 infected in human Huh-7 cells assessed as reduction in viral infection; assay type: functional, organism-based
dengue virus type 2 [34] = experiment: Antiviral activity against DENV2 16681 infected in human Huh7 cells by luciferase reporter gene assay; assay type: functional, organism-based; settings: Dengue virus, 16681, Huh-7
dengue virus type 2 [35] = experiment: Antiviral activity against DENV2 infected in human Huh-7 cells; assay type: functional, organism-based
dengue virus type 2 [36] = experiment: Antiviral activity against DENV2 infected in African green monkey Vero cells by focus formation unit reduction assay; assay type: functional, organism-based
dengue virus type 2 [37] = experiment: Virucidal activity against DENV2; assay type: functional, organism-based

## O=C1[C@H](CC[C@H](O)c2ccc(F)cc2)[C@@H](c2ccc(O)cc2)N1c1ccc(F)cc1 [EZETIMIBE]
Dengue virus type 1 [1]
  IC50: 13.1 µM

## CN1CCN(C2Cc3ccc(F)cc3Sc3ccc(O)cc32)CC1 (configuration not stated)
Dengue virus type 2 [2]
  IC50: 1.2 µM

## COc1cc(/C=C/C(=O)CC(=O)/C=C/c2ccc(O)c(OC)c2)ccc1O [CURCUMIN]
Dengue virus type 2 [3]
  IC50: 11.5 µM

## C/C(=N\NC(N)=S)[C@H](Cc1c[nH]c2ccccc12)NC(=O)c1ccccc1
Dengue virus type 2 [4]
  EC50: 30 to 50 µM
Dengue virus type 3 [5]
  EC50: 30 to 50 µM
Dengue virus type 4 [6]
  EC50: 30 to 50 µM
Dengue virus type 1 [7]
  EC50: 30 to 50 µM

## C=CCn1c2ccccc2c(=O)c2cc(Cl)ccc21
Dengue virus type 4 [8]
  EC50: 12.5 to 27.1 µM
Dengue virus type 3 [9]
  EC50: 12.5 to 27.1 µM
Dengue virus type 2 [10]
  EC50: 12.5 to 27.1 µM
Dengue virus type 1 [11]
  EC50: 12.5 to 27.1 µM

## C=C(C)[C@@H]1CC[C@]2(C)CC[C@]3(C)[C@H](CC[C@@H]4[C@@]5(C)CC[C@H](O)C(C)(C)[C@@H]5CC[C@]43C)[C@@H]12 [LUPEOL]
Dengue virus type 2 [12]
  EC50: 9.77 µM

## COc1c(O)cc2oc3cc(O)c(CC=C(C)C)c(O)c3c(=O)c2c1CC=C(C)C [MANGOSTIN]
Dengue virus type 3 [13]
  Activity: 47 - 55%
Dengue virus type 2 [14]
  EC50: 10 µM
Dengue virus type 2 [15]
  Activity: 47 - 55%
Dengue virus type 1 [16]
  Activity: 47 - 55%
Dengue virus type 4 [17]
  Activity: 47 - 55%

## C=C1CC[C@@H]2[C@](C)(CO)[C@H](O)CC[C@@]2(C)[C@@H]1C/C=C1/C(=O)OC[C@H]1O [ANDROGRAPHOLIDE]
Dengue virus type 2 [18]
  EC50: 22.7 µM
Dengue virus type 2 [19]
  EC50: 21.3 µM

## O=C1C[C@@H](c2ccc(O)cc2)Oc2cc(O)cc(O)c21 [NARINGENIN]
Dengue virus type 3 [20]
  EC50: 35.8 to 178 µM
Dengue virus type 1 [21]
  EC50: 35.8 to 178 µM
Dengue virus type 4 [22]
  EC50: 35.8 to 178 µM
Dengue virus type 2 [23]
  EC50: 35.8 to 178 µM

## NCC(=O)Nc1ccc(-n2nc(C(F)(F)F)cc2-c2ccc3c(ccc4ccccc43)c2)cc1 [AR-12]
Dengue virus type 4 [24]
  EC50: 0.6 to 0.8 µM
Dengue virus type 1 [25]
  EC50: 0.6 to 0.8 µM
Dengue virus type 2 [26]
  EC50: 0.6 to 0.8 µM
Dengue virus type 3 [27]
  EC50: 0.6 to 0.8 µM

## COC(=O)c1[nH]c2ccc(Cl)cc2c1C(=O)c1cc(OC)c(O)c(OC)c1
Genome polyprotein [28]
  IC50: 4.7 µM
Genome polyprotein [29]
  IC50: 6.7 µM
Genome polyprotein [30]
  IC50: 4.7 µM
Dengue virus type 2 [31]
  EC50: 4.6 µM
Genome polyprotein [32]
  IC50: 6.7 µM
Dengue virus type 2 [33]
  EC50: 4.6 µM

## C/C(=C\[C@H](C)C(=O)C[C@H](O)CC1CC(=O)NC(=O)C1)[C@@H]1OC(=O)/C=C/CC/C=C/C=C\[C@@H]1C [LACTIMIDOMYCIN]
Dengue virus type 2 [34]
  EC50: 0.4 µM
Dengue virus type 2 [35]
  EC50: 0.4 µM

## O=C(O)[C@H]1O[C@@H](Oc2cc3oc(-c4ccccc4)cc(=O)c3c(O)c2O)[C@H](O)[C@@H](O)[C@@H]1O [BAICALIN]
Dengue virus type 2 [36]
  IC50: 13.5 µg/mL (≈ 30.2 µM)
Dengue virus type 2 [37]
  IC50: 8.74 µg/mL (≈ 19.6 µM)
